Reference: patent publication US9446031B2, “Compositions and methods for neovascularization” (National University of Singapore, priority 2012, dated 2016)
Entries after “also recorded” stand apart in the source; their conditions may differ.

Columns and labels:
Format in all cases: cell-based, human
HUVEC = experiment: Proteome profiler of angiogenic proteins secreted by endothelial cells; conditions: single agent compared with CPX+S1P
Excerpt: (§1) FIG. 4: CPX and S1P induce secretion of different angiogenic proteins by endothelial cells and fibroblasts. […] (E) and (J): representative images of 3 proteomic profiler membranes showing differences in protein secretion between CPX and S1P treated group and non-treated group (culture media control). (K) and (L): ELISA quantitation of PlGF and VEGF corroborating semi-quantitative results shown in A-I. The negative values in the plots denote the cellular uptake of the measured proteins as opposed to secrete them. * p<0.05 As the experimental set-up favoured soluble factors as messengers between the two cell types the secretion of angiogenic factors by fibroblasts and endothelial cells in the presence of CPX and S1P, respectively, was assessed. Proteome profiler data indicated the increased secretion of several proteins including PlGF (6 fold), IL-8 (3 fold), EGF (2.9 fold) and endothelin-1 (1.5 fold) by CPX+S1P by endothelial cells.

IMR-90 fibroblasts = experiment: Proteome profiler of angiogenic proteins secreted by fibroblasts; conditions: single agent compared with CPX+S1P
Excerpt: as §1, with “In fibroblasts, CPX+S1P expression” for “Proteome profiler data indicated the increased secretion”, “HGF (1.4” for “several proteins including PlGF (6”, “IGFBP-2 (1.8” for “IL-8 (3”, “uPA (1.6” for “EGF (2.9”, “VEGF (11 fold). […] In fibroblasts an increase of VEGF secretion which was 1819±754.1 (±standard error) pg/ml-Million cell-day was confirmed.” for “endothelin-1 (1.5 fold) by CPX+S1P by endothelial cells.”

IMR90 cells = experiment: ELISA of MCP-1 secreted by IMR90 cultured in EC conditioned medium
Procedure: FIG. 5: Endothelial CM modulates growth factor secretion by fibroblasts. (A) ELISA: fibroblasts secrete 5 times more MCP-1 cultured in EC CM. […] (B) and (C): semi-quantitative proteomic array plots showing clearance of EC secreted endothelin-1 and EGF from culture media in the presence of fibroblasts. […] To study the influence of endothelial cells on fibroblasts IMR90 cells were cultured in EC conditioned medium with or without the addition of CPX+S1P, and quantified factors secreted by fibroblasts by ELISA. […] Endothelial cell CM induced the secretion of MCP-1 by fibroblasts by 3-fold in the absence of any CPX+S1P induction, however, the combination of both pharmacological agents increased MCP-1 secretion by a further 20%.

endothelia (HUVEC) = experiment: ELISA quantitation of PlGF secretion by endothelial cells
Excerpt: (§2) FIG. 4: CPX and S1P induce secretion of different angiogenic proteins by endothelial cells and fibroblasts. […] (E) and (J): representative images of 3 proteomic profiler membranes showing differences in protein secretion between CPX and S1P treated group and non-treated group (culture media control). (K) and (L): ELISA quantitation of PlGF and VEGF corroborating semi-quantitative results shown in A-I. The negative values in the plots denote the cellular uptake of the measured proteins as opposed to secrete them. * p<0.05 In fibroblasts, CPX+S1P expression of HGF (1.4 fold), IGFBP-2 (1.8 fold), uPA (1.6 fold) and VEGF (11 fold). […] In fibroblasts an increase of VEGF secretion which was 1819±754.1 (±standard error) pg/ml-Million cell-day was confirmed.

fibroblasts (IMR-90) = experiment: ELISA quantitation of VEGF secretion by fibroblasts
Excerpt: as §2

Which results are given for `Cc1cc(C2CCCCC2)n(O)c(=O)c1` [CPX, ciclopirox olamine]?
increased secretion of PlGF, IL-8, EGF and endothelin-1 by endothelial cells, single agent (HUVEC): Highly comparable increases; also recorded: main compound causing the observed upregulation; increased secretion of HGF, IGFBP-2, uPA and VEGF by fibroblasts, single agent (IMR-90 fibroblasts): Highly comparable increases; also recorded: main compound causing the observed upregulation; effect on MCP-1 secretion by fibroblasts, monosubstance (IMR90 cells): neither S1P nor CPX were able to increase basal MCP-1 secretion; also recorded: No significant difference

How did the “increased secretion of PlGF, IL-8, EGF and endothelin-1 by endothelial cells, single agent” value (HUVEC) turn out when `CCCCCCCCCCCCC/C=C/[C@@H](O)[C@@H](N)COP(=O)(O)O` [S1P, sphingosine 1-phosphate] was run?
The value was “none were observed”.

And the “increased secretion of HGF, IGFBP-2, uPA and VEGF by fibroblasts, single agent” value (IMR-90 fibroblasts)?
Its value is “none were observed”.

And the “effect on PlGF secretion rate” value (endothelia (HUVEC))?
Its value is “did not show any effect”.

What about the “effect on VEGF secretion” value (fibroblasts (IMR-90)) of the same molecule?
The value was “did not elicit measurable effects”.

And the “effect on MCP-1 secretion by fibroblasts, monosubstance” value (IMR90 cells)?
The value was “neither S1P nor CPX were able to increase basal MCP-1 secretion; also recorded: No significant difference”.
